Results published in patent US12414958B2, “Medicament and use thereof for treating bacterial infections involving biofilm” (Debiopharm International S.A., priority 2019, dated 2025).
Where “and” joins values, the source holds several entries; their conditions need not be identical. Equal entries are not always repeated.

Assays:
ATCC 43300 MRSA strain = assay: Induction of resistance studies, ex vivo bacterial exposure to 4×MIC (Example 1); type: cell-based, Staphylococcus aureus; details: ex vivo exposure to 4×MIC; single and combination therapy; 24h or 72h biofilm
Description: Two experimental settings were used in this study to evaluate the treatment efficacies against early (24h) and/or mature (72h) MRSA catheter formed biofilms. Briefly, mice were anaesthetised by an IP injection of about 120 μl a mix of ketamine (50 mg/kg) and xylazine (10 mg/kg) (4 mL ketamine+2 mL xylazine+10 mL saline). Flank on the right side was shaved and then disinfected by 3 consecutive applications of betadine. A cutaneous and then subcutaneous (SC) incisions of 0.2 cm were made under sterile conditions and a 1 cm segment of polyurethane catheter (Ref. No. ES-04730 Arrow international) cut into 2 longitudinal fragments was inserted SC (into the incision and then pushed further under the skin, about 2 cm away from the incision). The inoculation was done simultaneously by placing 50 μl of the bacterial culture onto the catheter (10^6 CFU of ATCC 43300 MRSA strain). The incision was stitched up and disinfected. The day of the infection was referred to as Day0 (D0). To ensure that the study was conducted in sterile conditions from the start to the end of the experiment, non-infected mice (sentinel group) were included. […] In both 24 h and 72h biofilm settings, two groups of infected non-treated animals (Vehicle controls) were evaluated for bacterial counts: at baseline (24h or D1 [for 24-h biofilm] and 72h or D3 [for 72-h biofilm] post infection, i.e. time points corresponding to treatments initiations) and at the termination of treatment duration (D6 [for 24-h biofilm] and D8 [for 72-h biofilm] post infection). Post treatment CFUs were counted on D6 or D8 and results were expressed as Log10 CFU/g of catheter (Mean±SEM). The limit of detection was determined as being 1 Log10 CFU/g of catheter. Changes of CFU/g of catheter (Δ Log10) from the baseline (D1 or D3 for 24-h and 72-h biofilm, respectively) and cure rates (corresponding to the percentage of mice without catheter-associated bacteria within a given treatment group) were also calculated. In vivo induction of antibiotic-resistant bacteria was analysed for all tested antibiotics.

[1] = system: S. aureus ATCC 43300 (MRSA); assay: Mouse tissue cage model of MRSA infection, 11-day treatment at lower dosage (Example 3); type: in vivo, Staphylococcus aureus; details: for Cure rate (%) / adherent bacteria reduction from baseline (mean±SD): 24-h biofilm; for Cure rate (%) / adherent bacteria reduction from baseline (mean±SD) / day on which bactericidal effect (mean reduction of bacterial load by ≥3 Log10) on planktonic bacteria was exerted / Planktonic day 3 Δlog from baseline (individual animal) / Planktonic day 6 Δlog from baseline (individual animal) / Planktonic day 9 Δlog from baseline (individual animal) / Planktonic day 11 Δlog from baseline (individual animal): 11-day treatment; for Cure rate (%): cages without growth / total cages; for adherent bacteria reduction from baseline (mean±SD): n=6, given as positive reduction; for Adherent Mean / Adherent Δlog from baseline (individual animal): medium after sonication of explanted tissue cages, day 14 vs day 1; for Adherent Mean: group mean; for day on which bactericidal effect (mean reduction of bacterial load by ≥3 Log10) on planktonic bacteria was exerted: planktonic bacteria in tissue cage fluid; for Planktonic day 3 Δlog from baseline (individual animal) / Planktonic day 6 Δlog from baseline (individual animal) / Planktonic day 9 Δlog from baseline (individual animal) / Planktonic day 11 Δlog from baseline (individual animal) / Planktonic day 14 Δlog from baseline (individual animal) / Planktonic day 3 Mean / Planktonic day 6 Mean / Planktonic day 9 Mean / Planktonic day 11 Mean / Planktonic day 14 Mean: tissue cage fluid; for Planktonic day 3 Δlog from baseline (individual animal) / Planktonic day 6 Δlog from baseline (individual animal) / Planktonic day 9 Δlog from baseline (individual animal) / Planktonic day 11 Δlog from baseline (individual animal): baseline day 1; for Planktonic day 14 Δlog from baseline (individual animal): 3 days after end of 11-day treatment; for Planktonic day 3 Mean / Planktonic day 6 Mean / Planktonic day 9 Mean / Planktonic day 11 Mean / Planktonic day 14 Mean: group mean Δlog from baseline
Source text: The purpose of this study was to evaluate the efficacy of Debio 1450 BES alone and in combination with Daptomycin (DAP) in the mouse tissue cage model of implant-associated infections caused by methicillin resistant Staphylococcus (S.) aureus (MRSA) at lower dosage and longer treatment duration than used in the previous study (Example 2). The efficacy against 24-h biofilm of S. aureus ATCC 43300 (MRSA) was investigated. Employing a small initial inoculum (ca. 300 CFU/cage) together with a 24-h biofilm allowed to simulate clinical settings of an acute implant infection and/or surgical debridement.
The Debio 1450 BES dose of 20 mg/kg BID reflects the most current HED of 240 mg BID obtained in the recent PK studies (50 mg/kg BID was used in Example 2 based on the previous PK analysis). […] The treatment duration of 11 days was selected to compensate lowering of the dose of Debio 1450 BES (5.5-day treatment was used in Example 2) and is in line with the prolonged antibiotic therapy applied in patients with prosthetic joint infections.
The same mouse tissue cage model was employed as described in Example 2 above. The animals received antibiotic treatment i.p. on day 1 post-infection through day 11. One group received only 5% glucose and served as infected, untreated control group (vehicle). […] Debio 1450 BES and vehicle were administered bid, and DAP was administered qdam. In the present study we investigated the efficacy of lower dosage in a prolonged treatment duration.
Five to 6 days before infection, TCF was aspirated to ascertain the sterility of implanted cages by TCF plating on blood agar plates. TCF was aspirated and plated on day 1 (before treatment) to confirm the establishment of infection. In addition, the number of bacteria in TCF was determined on day 3 (before the first injection that day), on day 6, day 9 and on day 11 (before last treatment), and on day 14 (before explantation of the cages) to evaluate the treatment efficacy against planktonic bacteria. The mouse number and bacterial count for the given cage is reported to analyse the time course of antibacterial activity of the tested drugs. The efficacy against biofilm-embedded bacteria is assessed qualitatively and quantitatively following aseptic explantation of the tissue cages 3 days after the completion of treatment. The 3 days of resting period helped to avoid the antibiotic carryover effect. Upon explantation, cages were washed twice with phosphate buffered saline (PBS) (Lot #5060914) and immediately transferred into 5 mL 0.9% NaCl (Lot #L171095). Following 30 s vortexing, sonication (3 min at 130 W), and an additional 30 s vortexing step the numbers of bacteria dispersed from biofilm was determined by plating. The sonicated cages were washed once with PBS, transferred into 5 mL TSB (Lot #0286463), and incubated for 48 h at 37° C., with an additional vortexing step after 24 h of incubation. After the incubation, tubes were vortexed again and bacterial regrowth was assessed visually. In addition, 100 μL of each culture was plated on blood agar plates to ascertain the regrowth. A positive culture is defined as a treatment failure. The efficacy of treatment against adherent bacteria is expressed as the cure rate (in percent), defined as the number of cages without growth divided by the total number of cages in the individual treatment group. In addition, single colonies from the re-growth plates were used to achieve the 0.5 McFarland. 100 μl of each 0.5 McFarland culture was plated on MHA plates containing the antibiotics corresponding to the treatment used (note: bacteria from mice treated with Debio 1450 will be plated on plates containing Debio 1452).

SMILES | Cure rate (%) [1] [%] | adherent bacteria reduction from baseline (mean±SD) [1] [log 10 CFU/mL] | Adherent Mean [1] [log 10 CFU/mL] | day on which bactericidal effect (mean reduction of bacterial load by ≥3 Log10) on planktonic bacteria was exerted [1] [day] | Planktonic day 3 Mean [1] [Log10] | Planktonic day 6 Mean [1] [Log10] | Planktonic day 9 Mean [1] [Log10] | Planktonic day 11 Mean [1] [Log10] | Planktonic day 14 Mean [1] [Log10] | also measured
CCCCCCCCCC(=O)N[C@@H](Cc1c[nH]c2ccccc12)C(=O)N[C@H](CC(N)=O)C(=O)N[C@@H](CC(=O)O)C(=O)N[C@@H]1C(=O)NCC(=O)N[C@@H](CCCN)C(=O)N[C@@H](CC(=O)O)C(=O)N[C@H](C)C(=O)N[C@@H](CC(=O)O)C(=O)NCC(=O)N[C@H](CO)C(=O)N[C@@H]([C@H](C)CC(=O)O)C(=O)N[C@@H](CC(=O)c2ccccc2N)C(=O)O[C@@H]1C [Daptomycin] | 50 | 3.15±2.74 | −3 | 6 | −3 | −3.33 | −3.9 | −3.73 | −2 | emergence of resistant mutants (ATCC 43300 MRSA strain): no emergence of resistant mutants; Adherent Δlog from baseline (individual animal) ([1]; listed as DAP): −4.2 log 10 CFU/mL and −0.3 log 10 CFU/mL and 0.24 log 10 CFU/mL and −6 log 10 CFU/mL (2×) and −2.5 log 10 CFU/mL; Planktonic day 3 Δlog from baseline (individual animal) ([1]; listed as DAP): −2.56 Log10 and −2.18 Log10 and −3.12 Log10 and −2.06 Log10 and −3.41 Log10 and −3.62 Log10; Planktonic day 6 Δlog from baseline (individual animal) ([1]; listed as DAP): −2.7 Log10 and −3.5 Log10 (2×) and −3.4 Log10 (2×) and −3.6 Log10; Planktonic day 9 Δlog from baseline (individual animal) ([1]; listed as DAP): −4.6 Log10 and −5.5 Log10 and −2.7 Log10 and −3.4 Log10 and −3.6 Log10 (2×); Planktonic day 11 Δlog from baseline (individual animal) ([1]; listed as DAP): −4.6 Log10 and −2.9 Log10 and −2.70 Log10 and −3.4 Log10 and −5.2 Log10 and −3.6 Log10; Planktonic day 14 Δlog from baseline (individual animal) ([1]; listed as DAP): −4.6 Log10 and −1.1 Log10 and −1.5 Log10 and −3.4 Log10 and −0.6 Log10 and −3.6 Log10
Cc1c(CN(C)C(=O)/C=C/c2cnc3c(c2)CCC(=O)N3COP(=O)(O)O)oc2ccccc12 [Debio 1450, {6-[(1E)-3-{methyl [(3-methyl-1-benzofuran-2-yl)methyl]amino}-3-oxoprop-1-en-1-yl]-2-oxo-3,4-dihydro-1,8-naphthyridin-1 (2H)-yl} methyl dihydrogen phosphate] | 83 | 4.35±2.5 | −4 | 6 | −3 | −3.50 | −4.10 | −4.10 | −3 | Adherent Δlog from baseline (individual animal) [1]: −4.2 log 10 CFU/mL (2×) and 0.43 log 10 CFU/mL and −6 log 10 CFU/mL (3×); Planktonic day 3 Δlog from baseline (individual animal) [1]: −1.46 Log10 and −3.68 Log10 and −2.22 Log10 and −3.33 Log10 and −3.03 Log10 and −2.37 Log10; Planktonic day 6 Δlog from baseline (individual animal) [1]: −3.1 Log10 and −3.7 Log10 (2×) and −4.2 Log10 and −3.3 Log10 and −3 Log10; Planktonic day 9 Δlog from baseline (individual animal) [1]: −3.1 Log10 and −3.7 Log10 and −6.2 Log10 and −3.3 Log10 and −3 Log10 and −5.3 Log10; Planktonic day 11 Δlog from baseline (individual animal) [1]: −3.1 Log10 and −3.7 Log10 and −6.2 Log10 and −3.3 Log10 and −3 Log10 and −5.3 Log10; Planktonic day 14 Δlog from baseline (individual animal) [1]: −3.1 Log10 and −3.7 Log10 and −0.2 Log10 and −3.3 Log10 and −3 Log10 and −5.3 Log10
